Experimental data published in article PMC5655689, “Therapeutic potential of the phosphino Cu(I) complex (HydroCuP) in the treatment of solid tumors” (Scientific Reports, 2017).
Several values for one entry are separate records, joined by “and”; a condition that tells them apart may be missing. Equal entries are not always repeated.

Legend:
[1] = test system: Lewis Lung Carcinoma (LLC); test: In vivo antitumor activity towards Lewis Lung Carcinoma (LLC) implanted i.m. in C57BL mice; parameters: species or system mouse; conditions: for Average tumor weight (mean ± S.D., g) / Inhibition of tumor growth (%): day 15
Method: The schedule of HydroCuP administration in vivo was initially determined by assessing the total dose that could be injected without undue toxicity for different schedules in nontumor-bearing C57BL mice (data not shown). […] Three schedules of i.p. HydroCuP were administered: early treatment (days 3, 5, 7 and 9 after tumor inoculum), intermediate treatment (days 7–14) and late treatment with split-doses (days 9–11 with a loading dose and days 12–14 with a lower maintenance dose). […] Cisplatin treatment schedule was selected according to standard protocols designed to optimize its efficacy and minimize the occurrence of adverse events. For the early treatment, control mice received the vehicle (0.9% NaCl). HydroCuP was dosed at 25, 35 and 50 mg/kg i.p. on days 3, 5, 7, 9, 11 and 13 after tumor implantation. Cisplatin was dosed at 1.5 mg/kg i.p. on days 3, 5, 7, 9, 11 and 13 after tumor implantation.
The mice were purchased from Charles River, Italy, housed in steel cages under controlled environmental conditions (constant temperature, humidity, and 12 h dark/light cycle), and alimented with commercial standard feed and tap water ad libitum. The LLC cell line was purchased from ECACC, United Kingdom. The LLC cell line was maintained in DMEM (Euroclone, Pero, Italy) supplemented with 10% heat-inactivated foetal bovine serum (Euroclone, Pero, Italy), 10 mM L-glutamine, 100 U/mL penicillin, and 100 µg/mL streptomycin in a 5% CO2 air incubator at 37 °C. The LLC was implanted intramuscularly (i.m.) as a 2 × 10^6 cell inoculum into the right hind leg of 8-week old male and female C57BL mice (24 ± 3 g body weight). The antitumor activity of HydroCuP in LLC tumor model has been investigated by means of different schedules (early treatment, intermediate treatment and late treatment) and compared with that promoted by the reference metallodrug, CDDP. In the early-stage treatment, animals were treated at day 3, 5, 7, 9, 11 and 13 after the tumor cell inoculum with an i.p. injection of HydroCuP (25, 35 and 50 mg/kg), CDDP (1.5 mg/kg) or the vehicle solution (0.9% NaCl).
In the intermediate treatment, animals were treated after 7 days from tumor implantation (visible tumor) with daily i.p. doses of HydroCuP (30 and 50 mg/kg), CDDP (1.5 mg/kg) or the vehicle solution (0.9% NaCl). In the late treatment, animals were treated after 9 days from tumor implantation (palpable tumor) with i.p. doses of HydroCuP (50 mg/kg) from day 9 to day 11 and with i.p. doses of HydroCuP (30 mg/kg) from day 12 to day 14, or with daily doses of CDDP (1.5 mg/kg) or with the vehicle solution (0.9% NaCl). At day 15, animals were sacrificed, the legs were amputated at the proximal end of the femur, and the inhibition of tumor growth was determined according to the difference in weight of the tumor-bearing leg and the healthy leg of the animals expressed as a percentage referring to the control animals. Body weight was measured every 2 days and was taken as a parameter for systemic toxicity.

[2] = Tissue distribution of copper in LLC-bearing mice (GF-AAS); type: in vivo, mouse; conditions: single i.p. 50 mg/kg on day 10, 24 h
Method: To better understand the pharmacology and toxicology of the novel copper(I) complex, tissue samples, collected from LCC-bearing C57BL mice were analysed. […] On day 10 after tumor implantation, mice were treated with a single i.p. injection of 50 mg/kg of HydroCuP. After 24 hours, animals were sacrificed and copper content was quantified by graphite furnace atomic absorption spectroscopy (GF-AAS) analysis in several organs and normalized to control mice tissues. The solid tumor mass presented the highest copper concentration (at least 1.4 times higher than that detected in spleen), followed by spleen, kidney, liver and stomach.
Figure 3 Tissue distribution in LLC bearing C57BL mice. C57BL mice were inoculated i.m. on the right flank with LLC cells (2 × 10^6). After 10 days, HydroCuP was administered i.p. at a dose of 50 mg/kg. The mice were sacrificed after 24 hours and tumor, brain, spleen, kidney, intestine, liver and stomach were excised. Tissues were washed in ice-cold saline and weighed after removing excess fluid. All samples were mineralized in HNO3 and Cu content in each sample was measured by GF-AAS.
C57BL mice were inoculated […]. on the right flank with LLC cells (2 × 10^6). […] All samples were mineralized in HNO3 and Cu content in each sample was measured by GF-AAS (Graphite Furnace Atomic Absorption Spectroscopy).

[3] = parameters: method as in PMID 21388518, PMID 20486256; conditions: pH 7.4; cited from earlier work
[4] = test system: DRG explants from 15 day-embryonic Sprague-Dawley rats; test: Neurotoxicity: neurite elongation in DRG explants; conditions: 48 h, DRG explants with NGF; OXP 5, 7.5, 10 μM; HydroCuP 5, 10, 20 μM
Method: To investigate the potential neurotoxic effect of HydroCuP, we employed a well-established in vitro model based on organotypic cultures of DRG from 15-day-old rat embryos. Neurite elongation under NGF influence was evaluated in DRG explants. […] For comparison purposes, the effect induced by the reference drugs OXP and CDDP was also tested.
OXP and HydroCuP toxicity at 48 h in DRG explants from 15 day-embryonic Sprague-Dawley rats. Representative images of neurite length in maturing DRG explants with different concentrations of OXP and HydroCuP (A). Bar: 500 µm.
DRG from E15 Sprague-Dawley rats (Envigo, San Pietro al Natisone, Italy) were aseptically removed and cultured onto a single layer of rat tail collagen surfaces in 35-mm dishes as previously described[36].
The DRG were incubated in AN2 medium [MEM added with 1.4 mM L-glutamine (Euroclone, Pero, Italy), 10% calf bovine serum (Hyclone, Thermo Scientific, Logan, UT) 50 µg/ml ascorbic acid, 0.6% glucose (Sigma-Aldrich) in the presence of 5 ng/ml nerve growth factor (NGF; Life Technologies, Monza, Italy) in a 5% CO2 humidified incubator at 37 °C.
To evaluate the neurotoxicity of HydroCuP and OXP, the DRG explants were treated for 2 h with NGF and subsequently exposed to each drug at different concentrations for 48 h. OXP was tested at 5, 7.5 and 10 μM while 5, 10 and 20 μM of HydroCuP was used. DRG treated with AN2 medium supplemented with 5 ng/ml NGF alone were used as controls. Phase-contrast micrographs were taken, and the length of the longest neurite in each DRG was measured by Image J (NIH, Bethesda, MD), using a standard calibration grating photographed at the same magnification. A compound is considered neurotoxic when the mean neurite elongation is reduced by 50% or more after drug exposure vs control.

[5] = test system: LoVo colorectal oxaliplatin-resistant xenograft; test: In vivo activity toward LoVo-OXP (OXP-resistant) tumor xenograft in BALB/c nu/nu mice; conditions: 30 mg/kg daily i.p. from day 14, day 30
Method: To this aim, we developed the OXP-sensitive and OXP-resistant LoVo xenografts in BALB/c nu/nu mice. […] OXP-sensitive or OXP-resistant LoVo cells (1 × 10^7) were injected in the flank of mice. Once tumor was established (tumor volumes of about 0.4 cm^3, around 14 days after tumor inoculation), mice were randomly divided into six groups (6 animals per group, 8 controls). The HydroCuP-treated groups (6 mice each group) received daily 30 mg/kg by i.p. injection and the OXP-treated group was given 2 mg/kg by i.p. injection. At day 30, animals were sacrificed, and the inhibition of tumor growth was determined (Fig. 4, panel A). Measurements of body weights were recorded from day 14 every 2 days until the experimental endpoint (Fig. 4, panel B).
(A) LoVo and LoVo-OXP tumor xenografts in 6-week-old BALB/c nu/nu mice by injecting 1 × 10^7 tumor cells subcutaneously on the left dorsal flank. After 24 h from tumor implantation, mice randomly divided into six groups (6 animals per group). Chemotherapy delayed until day 14 (tumor volumes of about 0.4 cm^3). From day 14, HydroCuP dosed daily at 30 mg/kg i.p., OXP dosed daily at 2 mg/kg i.p. At day 30, animals sacrificed, and the inhibition of tumor growth determined by comparing the volume of the control group and the treatment group expressed as percentage referred to the control animals. Error bars indicate the S.D. *p < 0.05, **p < 0.01, with respect to control. […] Body weight was measured every two days and was taken as a parameter of systemic toxicity. The error bars indicate the S.D. **P < 0.01; *P < 0.05.
LoVo and LoVo-OXP tumor xenografts were established in 6-week-old BALB/c nu/nu mice by injecting 1 × 10^7 tumor cells subcutaneously (100 μL in serum free medium) on the left dorsal flank. After 24 h from tumor implantation, mice were randomly divided into six groups (6 animals per group, 8 controls). Chemotherapy was delayed until the tumor was about 0.4 cm^3 (day 14). From day 14, HydroCuP was dosed daily at 30 mg/kg i.p. whereas OXP was dosed daily at 2 mg/kg i.p. Measurements of body weights and tumor volumes were recorded from day 14 every 2 days until the experimental endpoint. The long axis (L) and the short axis (S) were measured with callipers, and the tumor volume (V) was calculated using the following equation: V = SxSxL/2. At day 30, animals were sacrificed, and the inhibition of tumor growth was determined by comparing the volume of the control group and the treatment group expressed as percentage referred to the control animals.

[6] = Early treatment, 35 mg/kg i.p. days 3, 5, 7, 9, 11, 13
[7] = Early treatment, 50 mg/kg i.p. days 3, 5, 7, 9, 11, 13

With `F[P-](F)(F)(F)(F)F.OC[P+](CO)(CO)[Cu-3]([P+](CO)(CO)CO)([P+](CO)(CO)CO)[P+](CO)(CO)CO` [HydroCuP, [Cu(thp)4][PF6]] the “Average tumor weight (mean ± S.D., g)” value ([1]; Early treatment, 25 mg/kg i.p. days 3, 5, 7, 9, 11, 13) was 0.473 ± 0.12 g, the “Inhibition of tumor growth (%)” value ([1]; Early treatment, 25 mg/kg i.p. days 3, 5, 7, 9, 11, 13, 25 mg/kg) was 26% and 25.86% and the “Average tumor weight (mean ± S.D., g)” value [1, 6] was 0.273 ± 0.04 g. For the same molecule, the “Inhibition of tumor growth (%)” value [1, 6] was 57.21%, the “Average tumor weight (mean ± S.D., g)” value [1, 7] was 0.113 ± 0.04 g and the “Inhibition of tumor growth (%)” value [1, 7] was 82.28%. For the same molecule, the Body weight changes ([1]; Early treatment, LLC-bearing C57BL mice, 15 days) was “did not induce significant body weight loss”, the “Average tumor weight (mean ± S.D., g)” value ([1]; Intermediate treatment, 30 mg/kg daily i.p. day 7-14) was 0.088 ± 0.03 g and the “Inhibition of tumor growth (%)” value ([1]; Intermediate treatment, 30 mg/kg daily i.p. day 7-14, 30 mg/kg) was 82% and 82.37%. For the same molecule, the “Average tumor weight (mean ± S.D., g)” value ([1]; Intermediate treatment, 50 mg/kg daily i.p. day 7-14) was 0.071 ± 0.02 g, the “Inhibition of tumor growth (%)” value ([1]; Intermediate treatment, 50 mg/kg daily i.p. day 7-14, 50 mg/kg) was 85% and 85.85% and the Body weight loss ([1]; Intermediate treatment, LLC-bearing C57BL mice) was < 10%. For the same molecule, the “Average tumor weight (mean ± S.D., g)” value ([1]; Late treatment, 50 mg/kg (days 9-11) then 30 mg/kg (days 12-14) daily i.p.) was 0.024 ± 0.03 g, the “Body weight changes / adverse effects” value ([1]; Late treatment, LLC-bearing C57BL mice) was “did not induce any adverse effects including significant body weight loss” and the “Copper content in brain with respect to control animals” value [2] was “no enhance in copper content was detectable in brain”. For the same molecule, the “Copper concentration in tumor mass, times higher than in spleen” value ([2]; normalized to control mice tissues) was “at least 1.4”, the Water solubility [3] was > 2000 µg/mL and the “Neurotoxic effect (neurite elongation)” value [4] was “no neurotoxic effect even at the highest concentrations”. The “Inhibition of tumor growth (decrease in final tumor volume)” value [5] was “about 65%”.
